Measured values published in patent US11549123B2, “Plant EPSP synthases and methods of use” (PIONEER HI-BRED INTERNATIONAL, INC., priority 2015, dated 2023).
pKi: −log10 of the molar value.

Experiments:
[1] = target: Zea mays EPSPS variant 771-C2 (A4W, H54M, L98C, G102A, K173R, I208L, K243E, E302S, T361S, E391P, D402G, A416G, V438R, S440R, T441Q, F442V), SEQ ID NO:4 (Zea mays, UniProt O24566, A3W/A415G/D401G/E301S/E390P/F441V/G101A/H53M/I207L/K172R/K242E/L97C/S439R/T360S/T440Q/V437R); assay: EPSPS substrate saturation kinetics, 771-C2; type: biochemical
Method: EPSPS activity was determined by quantifying the phosphate generated from the EPSPS reaction. Release of inorganic phosphate was coupled to reaction with 2-amino-6-mercapto-7-methylpurine ribonucleoside, catalyzed by purine-nucleoside phosphorylase (M R Webb, Proc. Natl. Acad. Sci. 89:4884-4887, 1992). The absorbance change that occurs was monitored at 360 nm, where the extinction is 11,200 M^−1 cm^−1, with a Spectramax plate reader (Molecular Devices). To determine kinetic parameters, the varied substrate was present at seven concentrations (the eighth being the blank, containing no substrate) ranging from 4 to 400 uM and the unvaried substrate present at saturation. […] Reactions were monitored with a Spectramax plate reader. […] KI was then calculated from the following form of the Michaelis-Menten equation for competitive inhibition: KI=KM[I]/(KM app−KM) KM approximates the dissociation constant of the enzyme-substrate complex while kcat is the rate of conversion of substrate to product when the substrate concentration is saturating. kcat/KM is a widely accepted parameter for catalytic efficiency when substrate concentration is low (˜KM). […] The parameter kcat/KM×KI is used to quantify both catalytic efficiency and insensitivity and thus the overall fitness of the enzyme. […]

Bacterial EPSPS (CP4) = Bacterial EPSPS (CP4) (Agrobacterium sp., UniProt Q9R4E4); assay: Substrate saturation kinetic analysis with glyphosate, bacterial EPSPS (CP4)
Excerpt: There are several practical considerations for accurately estimating (kcat/KM)*KI with the rapid method. […] If inhibition is too little, v0-vi will be small, and the error in the multiplier vi×v0/(v0-vi) will be large. […] High substrate concentration obscures sensitivity to the inhibitor and reduces stringency for capturing improvements in KM.

[2] = target: T1, Zea mays EPSPS variant Zm-T103A (Zea mays, UniProt O24566, T102A); assay: Substrate saturation kinetic analysis with glyphosate, Zm-T103A; type: biochemical
T1 construct: native maize plus T103A; E. coli BL21(DE3), Ni-NTA purified
T1 sequence (O24566 with tags, fused parts or gaps T102A): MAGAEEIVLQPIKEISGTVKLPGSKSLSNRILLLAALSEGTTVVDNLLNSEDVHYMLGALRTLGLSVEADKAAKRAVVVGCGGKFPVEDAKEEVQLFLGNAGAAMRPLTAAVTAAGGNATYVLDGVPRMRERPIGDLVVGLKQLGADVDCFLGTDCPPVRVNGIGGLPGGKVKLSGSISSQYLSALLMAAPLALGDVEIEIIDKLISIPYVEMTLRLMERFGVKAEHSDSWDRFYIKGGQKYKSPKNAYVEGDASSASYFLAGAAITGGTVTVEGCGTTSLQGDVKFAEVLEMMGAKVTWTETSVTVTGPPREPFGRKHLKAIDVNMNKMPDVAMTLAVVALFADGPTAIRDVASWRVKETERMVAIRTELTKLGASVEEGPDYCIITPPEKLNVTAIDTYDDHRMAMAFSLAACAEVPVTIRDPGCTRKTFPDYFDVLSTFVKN

[3] = target: T2, Zea mays EPSPS variant Zm-H6 (868-H6) with D196V (H6-D196V) (Zea mays, UniProt O24566, A1R/A3W/A415G/A71Q/D195V/D401G/E301S/E390G/G101A/I207L/K83R/L97C/T278A/T360S/T440Q/V437R); assay: Substrate saturation kinetic analysis with glyphosate, H6-D196V; type: biochemical
T2 construct: shuffled variant 868-H6 plus D196V; E. coli BL21(DE3), Ni-NTA purified
T2 sequence (O24566 with tags, fused parts or gaps A1R/A3W/A71Q/K83R/L97C/G101A/D195V/I207L/T278A/E301S/T360S/E390G/D401G/A415G/V437R/T440Q): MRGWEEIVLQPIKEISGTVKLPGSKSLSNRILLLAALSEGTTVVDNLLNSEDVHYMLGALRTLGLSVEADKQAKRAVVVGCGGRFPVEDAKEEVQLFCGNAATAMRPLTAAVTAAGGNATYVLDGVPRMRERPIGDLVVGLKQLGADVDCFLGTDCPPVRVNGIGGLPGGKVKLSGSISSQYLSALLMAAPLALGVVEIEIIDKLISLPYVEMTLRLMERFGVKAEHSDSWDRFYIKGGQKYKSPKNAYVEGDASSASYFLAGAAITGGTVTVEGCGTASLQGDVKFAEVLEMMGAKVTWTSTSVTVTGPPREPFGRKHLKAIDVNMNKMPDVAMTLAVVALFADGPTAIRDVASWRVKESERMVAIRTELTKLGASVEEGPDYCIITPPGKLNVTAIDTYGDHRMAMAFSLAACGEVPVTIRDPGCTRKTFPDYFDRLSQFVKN

Sequence of Bacterial EPSPS (CP4) (Q9R4E4 whole entry): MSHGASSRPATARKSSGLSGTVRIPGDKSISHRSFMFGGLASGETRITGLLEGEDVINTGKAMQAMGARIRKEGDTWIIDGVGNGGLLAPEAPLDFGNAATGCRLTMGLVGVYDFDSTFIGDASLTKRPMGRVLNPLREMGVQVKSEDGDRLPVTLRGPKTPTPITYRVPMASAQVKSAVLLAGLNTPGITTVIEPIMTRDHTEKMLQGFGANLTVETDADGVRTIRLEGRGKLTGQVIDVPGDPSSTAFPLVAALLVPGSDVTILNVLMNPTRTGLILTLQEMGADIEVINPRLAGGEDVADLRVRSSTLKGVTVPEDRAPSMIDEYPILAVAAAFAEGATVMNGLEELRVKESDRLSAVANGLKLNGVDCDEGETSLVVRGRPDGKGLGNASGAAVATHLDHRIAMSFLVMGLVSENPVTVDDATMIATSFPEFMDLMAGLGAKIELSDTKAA

## O=C(O)CNCP(=O)(O)O [glyphosate, N-phosphonomethylglycine]
[1]
  pKi: 3.46
[1]; PEP as substrate, glyphosate as inhibitor
  (kcat/KM)*KI: 5800
Bacterial EPSPS (CP4)
  pKi: 2.85
Bacterial EPSPS (CP4); substrate saturation, Bacterial EPSPS / CP4
  (kcat/KM)*KI: 108900
[2]
  pKi: 3.68
[2]; substrate saturation, Zm-T103A
  (kcat/KM)*KI: 321
[3]
  pKi: 3.16
[3]; substrate saturation, H6-D196V
  (kcat/KM)*KI: 1860
